Experimental findings from patent US20250101041A1, “POSITIVE ALLOSTERIC MODULATORS OF THE MUSCARINIC ACETYLCHOLINE RECEPTOR M4” (Vanderbilt University, priority 2022, published 2025) are described below.

The test has as its target T1, human mAChR M4 (Homo sapiens, UniProt P08173).
T1 construct: expressed in transfected cells; host or cells: CHO-K1 (American Type Culture Collection), stably expressing hM4 and Gqi5
T1 sequence (P08173 1-479): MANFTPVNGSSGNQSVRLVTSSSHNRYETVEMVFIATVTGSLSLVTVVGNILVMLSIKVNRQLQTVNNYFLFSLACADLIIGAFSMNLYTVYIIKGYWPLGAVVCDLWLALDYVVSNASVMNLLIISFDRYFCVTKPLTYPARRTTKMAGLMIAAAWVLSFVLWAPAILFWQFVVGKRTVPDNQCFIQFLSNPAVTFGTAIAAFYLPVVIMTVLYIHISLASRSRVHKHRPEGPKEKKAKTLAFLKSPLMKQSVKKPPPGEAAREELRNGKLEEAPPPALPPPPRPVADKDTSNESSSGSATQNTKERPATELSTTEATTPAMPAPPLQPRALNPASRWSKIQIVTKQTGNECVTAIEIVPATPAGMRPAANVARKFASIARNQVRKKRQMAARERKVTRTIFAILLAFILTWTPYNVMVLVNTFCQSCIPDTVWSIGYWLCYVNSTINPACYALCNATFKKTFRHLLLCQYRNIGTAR
Briefly: mAChR M4 cell-based functional assay: calcium mobilization (Fluo-4, FDSS), potentiation of EC20 acetylcholine response in hM4-Gqi5 CHO-K1 cells. To be noted: human M4; for Emax at 30 µM: CHO-K1, % ACh maximum at 30 μM; for pEC50: potentiation of EC20 acetylcholine response, calcium mobilization. The gist of the method: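 Readout is the fluorescence-ratio rise at 1 Hz on FDSS, with PAM activity taken as concentration-dependent enhancement of the EC20 acetylcholine response, fitted four-parameter for EC50/Emax. hM4-Gqi5 CHO-K1 cells carried Fluo-4 AM dye; test compounds (11 points, 1:3) preceded EC20 acetylcholine additions at 144 s and 230 s.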
Background: Calcium assays in cells follow changes in intracellular calcium, usually with a dye or a luminescent sensor.

The structures appear in SMILES notation. pEC50: −log10 of the molar value.

As to `Cc1cc(-c2cnc3c(c2)CN(c2nn4c(=O)cc(C)nc4c(C)c2C)CC3)ccn1` [Compound 1-243, 2,8,9-trimethyl-7-(3-(2-methylpyridin-4-yl)-7,8-dihydro-1,6-naphthyridin-6(5H)-yl)-4H-pyrimido[1,2-b] pyridazin-4-one], the Emax – broadly, the greatest response seen or fitted, relative to the assay's reference – at 30 µM was determined as 84% and the negative logarithm of the EC50 (pEC50) (in general, −log10 of the EC50, conventionally taken in molar units) was 6.91.

In the case of `COc1ccccc1-c1cnc2c(c1)CN(c1nn3c(=O)ccnc3c(C)c1C)CC2` [Compound 1-344, 7-(3-(2-methoxyphenyl)-7,8-dihydro-1,6-naphthyridin-6(5H)-yl)-8,9-dimethyl-4H-pyrimido[1,2-b]pyridazin-4-one], the Emax at 30 µM was found to be 72% and the pEC50 was 6.18.

Turning to `Cc1cc(=O)n2nc(N3CCc4ncc(-c5ccccc5OC(F)(F)F)cc4C3)c(C)c(C)c2n1` [Compound 1-275, 2,8,9-trimethyl-7-(3-(2-(trifluoromethoxy)phenyl)-7,8-dihydro-1,6-naphthyridin-6(5H)-yl)-4H-pyrimido[1,2-b]pyridazin-4-one], the Emax at 30 µM worked out at 54% and the pEC50 is 5.75.

Regarding `Cc1cc2nccc(=O)n2nc1N1CCc2ncc(NS(C)(=O)=O)cc2C1` [Compound 2-117, N-(6-(8-methyl-4-oxo-4H-pyrimido[1,2-b]pyridazin-7-yl)-5,6,7,8-tetrahydro-1,6-naphthyridin-3-yl)methanesulfonamide], the Emax at 30 µM was 83% and the pEC50 was 5.56.

`Cc1cc2nccc(=O)n2nc1N1CCc2ncc(-c3ccc(C#N)nc3)cc2C1` [Compound 1-316, 5-(6-(8-methyl-4-oxo-4H-pyrimido[1,2-b]pyridazin-7-yl)-5,6,7,8-tetrahydro-1,6-naphthyridin-3-yl)picolinonitrile]: the Emax at 30 µM was 71%.

For the compound `Cc1ccc(-c2cnc3c(c2)CN(c2nn4c(=O)ccnc4c(C)c2C)CC3)cc1F` [Compound 1-143, 7-(3-(3-fluoro-4-methylphenyl)-7,8-dihydro-1,6-naphthyridin-6(5H)-yl)-8,9-dimethyl-4H-pyrimido[1,2-b]pyridazin-4-one], the Emax at 30 µM turned out to be 102% and the pEC50 was 6.38.

As for `Cc1cc(=O)n2nc(N3CCc4ncc(-c5cc(F)ncc5C)cc4C3)c(C)cc2n1` [Compound 1-238, 7-(3-(2-fluoro-5-methylpyridin-4-yl)-7,8-dihydro-1,6-naphthyridin-6(5H)-yl)-2,8-dimethyl-4H-pyrimido[1,2-b]pyridazin-4-one], the Emax at 30 µM was 92% and the pEC50 was 6.15.

Regarding `Cc1cc2nccc(=O)n2nc1N1CCc2ncc(N3CCO[C@H](C)C3)cc2C1` [Compound 2-2, (R)-8-methyl-7-(3-(2-methylmorpholino)-7,8-dihydro-1,6-naphthyridin-6(5H)-yl)-4H-pyrimido[1,2-b]pyridazin-4-one], the maximal effect (Emax) at 30 µM amounted to 87% and the pEC50 was 6.44.

Turning to `Cc1ccc(-c2cnc3c(c2)CN(c2nn4c(=O)cc(C(F)F)nc4c(C)c2C)CC3)cc1F` [Compound 1-191, 2-(difluoromethyl)-7-(3-(3-fluoro-4-methylphenyl)-7,8-dihydro-1,6-naphthyridin-6(5H)-yl)-8,9-dimethyl-4H-pyrimido[1,2-b]pyridazin-4-one], the Emax at 30 µM came out at 84% and the pEC50 was 5.62.

Take `Cc1c(N2CCc3ncc(C(F)(F)F)cc3C2)nn2c(=O)ccnc2c1C` [Compound 1-64, 8,9-dimethyl-7-(3-(trifluoromethyl)-7,8-dihydro-1,6-naphthyridin-6(5H)-yl)-4H-pyrimido[1,2-b]pyridazin-4-one]: the Emax at 30 µM was determined as 102% and the pEC50 is 7.04.

In the case of `Cc1cc2nccc(=O)n2nc1N1CCc2ncc(Nc3cc(F)cc(C#N)c3)cc2C1` [Compound 2-104, 3-fluoro-5-((6-(8-methyl-4-oxo-4H-pyrimido[1,2-b]pyridazin-7-yl)-5,6,7,8-tetrahydro-1,6-naphthyridin-3-yl)amino)benzonitrile], the Emax at 30 µM was 85% and the pEC50 is 7.34.

With `Cc1cc(=O)n2nc(N3CCc4ncc(-c5cnn(C6CC6)c5)cc4C3)c(C)c(C)c2n1` [Compound 1-183, 7-(3-(1-cyclopropyl-1H-pyrazol-4-yl)-7,8-dihydro-1,6-naphthyridin-6(5H)-yl)-2,8,9-trimethyl-4H-pyrimido[1,2-b]pyridazin-4-one], the Emax at 30 µM came out at 79% and the pEC50 is 6.24.

In the case of `Cc1cc(=O)n2nc(N3CCc4ncc(-c5ccncc5C)cc4C3)c(C)c(C)c2n1` [Compound 1-245, 2,8,9-trimethyl-7-(3-(3-methylpyridin-4-yl)-7,8-dihydro-1,6-naphthyridin-6(5H)-yl)-4H-pyrimido[1,2-b] pyridazin-4-one], the Emax at 30 µM stood at 87% and the pEC50 is 7.14.

In the case of `CCc1ccccc1-c1cnc2c(c1)CN(c1nn3c(=O)ccnc3c(C)c1C)CC2` [Compound 1-342, 7-(3-(2-ethylphenyl)-7,8-dihydro-1,6-naphthyridin-6(5H)-yl)-8,9-dimethyl-4H-pyrimido[1,2-b]pyridazin-4-one], the Emax at 30 µM came out at 72% and the pEC50 was 6.69.

Turning to `Cc1c(N2CCc3ncc(N4CCOC(C)(C)C4)cc3C2)nn2c(=O)cc(C(F)F)nc2c1C` [Compound 2-40, 2-(difluoromethyl)-7-(3-(2,2-dimethylmorpholino)-7,8-dihydro-1,6-naphthyridin-6(5H)-yl)-8,9-dimethyl-4H-pyrimido[1,2-b]pyridazin-4-one], the Emax at 30 µM came to 90% and the pEC50 is 7.54.

Take `Cc1c(N2CCc3ncc(N4C[C@@H](C)O[C@@H](C)C4)cc3C2)nn2c(=O)cc(C(F)F)nc2c1C` [Compound 2-41, 2-(difluoromethyl)-7-(3-((2R,6S)-2,6-dimethylmorpholino)-7,8-dihydro-1,6-naphthyridin-6(5H)-yl)-8,9-dimethyl-4H-pyrimido[1,2-b]pyridazin-4-one]: the Emax at 30 µM turned out to be 96% and the pEC50 was 6.09.

`COc1cc(-c2cnc3c(c2)CN(c2nn4c(=O)ccnc4cc2C)CC3)ccc1F` [Compound 1-51, 7-(3-(4-fluoro-3-methoxyphenyl)-7,8-dihydro-1,6-naphthyridin-6(5H)-yl)-8-methyl-4H-pyrimido[1,2-b]pyridazin-4-one]: the Emax at 30 µM was determined as 85% and the pEC50 is 6.53.

Consider `Cc1ccc(F)cc1-c1cnc2c(c1)CN(c1nn3c(=O)cc(C(F)F)nc3c(C)c1C)CC2` [Compound 1-171, 2-(difluoromethyl)-7-(3-(5-fluoro-2-methylphenyl)-7,8-dihydro-1,6-naphthyridin-6(5H)-yl)-8,9-dimethyl-4H-pyrimido[1,2-b]pyridazin-4-one], for which the Emax at 30 µM amounted to 91% and the pEC50 was 6.37.

In the case of `COc1cc(C)c(-c2cnc3c(c2)CN(c2nn4c(=O)cc(C)nc4cc2C)CC3)cn1` [Compound 1-285, 7-(3-(6-methoxy-4-methylpyridin-3-yl)-7,8-dihydro-1,6-naphthyridin-6(5H)-yl)-2,8-dimethyl-4H-pyrimido[1,2-b]pyridazin-4-one], the Emax at 30 µM is 89% and the pEC50 is 6.26.

Regarding `COc1cncc(-c2cnc3c(c2)CN(c2nn4c(=O)ccnc4cc2C)CC3)c1` [Compound 1-52, 7-(3-(5-methoxypyridin-3-yl)-7,8-dihydro-1,6-naphthyridin-6(5H)-yl)-8-methyl-4H-pyrimido[1,2-b]pyridazin-4-one], the Emax at 30 µM was 47% and the pEC50 was 6.63.

On to `Cc1cc2nccc(=O)n2nc1N1CCc2ncc(-c3cccnc3C(C)C)cc2C1` [Compound 1-422, 7-(3-(2-isopropylpyridin-3-yl)-7,8-dihydro-1,6-naphthyridin-6(5H)-yl)-8-methyl-4H-pyrimido [1,2-b]pyridazin-4-one], for which the Emax at 30 µM came to 64% and the pEC50 was 5.77.

In the case of `Cc1cc(=O)n2nc(N3CCc4ncc(-c5ccc(F)nc5)cc4C3)c(C)c(C)c2n1` [Compound 1-204, 7-(3-(6-fluoropyridin-3-yl)-7,8-dihydro-1,6-naphthyridin-6(5H)-yl)-2,8,9-trimethyl-4H-pyrimido[1,2-b]pyridazin-4-one], the Emax at 30 µM was determined as 92% and the pEC50 was 6.99.

In the case of `Cc1cc2nccc(=O)n2nc1N1CCc2ncc(-c3sccc3C)cc2C1` [Compound 1-409, 8-methyl-7-(3-(3-methylthiophen-2-yl)-7,8-dihydro-1,6-naphthyridin-6(5H)-yl)-4H-pyrimido[1,2-b]pyridazin-4-one], the Emax at 30 µM was 95% and the pEC50 is 7.32.

For `Cc1c(N2CCc3ncc(-c4cnccn4)cc3C2)nn2c(=O)cc(C(F)F)nc2c1C` [Compound 1-116, 2-(difluoromethyl)-8,9-dimethyl-7-(3-(pyrazin-2-yl)-7,8-dihydro-1,6-naphthyridin-6(5H)-yl)-4H-pyrimido[1,2-b]pyridazin-4-one], the Emax at 30 µM is 93% and the pEC50 is 7.72.
